The results in this text go back to article PMC6571122 (Journal of medicinal chemistry, 2019).

Where “and” joins values, the source holds several entries; their conditions need not be identical. Equal entries are not always repeated.

Data set [1] is described as follows: measured LogP octanol/buffer. The data set is classed as physicochemical. The settings on record: pH 11.
A further data set is described as follows: in vitro. The conditions noted are these: human, liver microsomes. In general terms: Liver microsomes are a subcellular fraction often used to study metabolism.
Another data set in a line: kinetic solubility. The data set is classed as physicochemical. The settings on record: pH 7.4, Solubility (kinetic).
The next data set is described as follows: thermodynamic solubility. The data set is classed as physicochemical.
The nature of a further data set: brain to blood ratio. The conditions noted are these: female, CD1, mouse, in vivo, 10 mg/kg.
Data set [2] can be described thus: mouse liver microsome intrinsic clearance. Type of data set: in vitro ADME. The settings on record: liver microsomes.
For a further data set, the target named is hERG (Homo sapiens, UniProt Q12809). Description: CEREP 44 safety screen, [3H] Dofetilide binding. The settings on record: probe [3H] Dofetilide.
hERG, sequence (Q12809 whole entry): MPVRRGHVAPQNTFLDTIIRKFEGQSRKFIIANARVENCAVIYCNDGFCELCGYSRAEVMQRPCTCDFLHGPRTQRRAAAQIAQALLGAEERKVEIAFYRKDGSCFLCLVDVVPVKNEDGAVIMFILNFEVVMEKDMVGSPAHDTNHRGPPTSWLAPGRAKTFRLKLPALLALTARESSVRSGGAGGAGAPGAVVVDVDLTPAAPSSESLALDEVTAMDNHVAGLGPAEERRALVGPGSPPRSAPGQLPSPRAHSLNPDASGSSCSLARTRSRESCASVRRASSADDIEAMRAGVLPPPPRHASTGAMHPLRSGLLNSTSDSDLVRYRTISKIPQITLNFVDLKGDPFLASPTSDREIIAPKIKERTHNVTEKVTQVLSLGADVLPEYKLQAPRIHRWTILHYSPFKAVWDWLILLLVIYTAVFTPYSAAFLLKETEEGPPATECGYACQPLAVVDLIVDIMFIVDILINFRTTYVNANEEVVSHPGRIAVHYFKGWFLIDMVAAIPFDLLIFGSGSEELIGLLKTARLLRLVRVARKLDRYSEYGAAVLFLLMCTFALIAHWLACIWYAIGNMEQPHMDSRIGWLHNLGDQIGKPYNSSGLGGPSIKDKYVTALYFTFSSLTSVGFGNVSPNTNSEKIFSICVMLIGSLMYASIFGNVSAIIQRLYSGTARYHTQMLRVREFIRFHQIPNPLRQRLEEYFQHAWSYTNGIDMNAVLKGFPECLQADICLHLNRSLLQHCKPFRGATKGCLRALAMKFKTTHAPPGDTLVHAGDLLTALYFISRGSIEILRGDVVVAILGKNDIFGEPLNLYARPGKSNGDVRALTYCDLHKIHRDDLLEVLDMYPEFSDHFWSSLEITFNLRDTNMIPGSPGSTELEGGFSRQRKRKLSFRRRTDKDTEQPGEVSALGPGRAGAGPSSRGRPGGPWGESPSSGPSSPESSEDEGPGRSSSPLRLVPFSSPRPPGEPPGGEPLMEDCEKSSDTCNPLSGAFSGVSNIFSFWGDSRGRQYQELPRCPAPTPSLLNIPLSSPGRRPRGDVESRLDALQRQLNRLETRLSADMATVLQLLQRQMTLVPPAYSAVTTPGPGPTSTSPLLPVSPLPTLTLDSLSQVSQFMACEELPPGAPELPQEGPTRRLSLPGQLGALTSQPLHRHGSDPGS

In general, logP refers to the decadic logarithm of the partition coefficient of the neutral form, usually between octanol and water. A high value points to a more lipophilic compound. What is called CLint scaled is the capacity of the preparation to metabolise the compound, expressed as a volume cleared per time. For orientation: kinetic solubility means the concentration staying in solution when a stock, usually in DMSO, is diluted into the medium. For orientation: solubility (thermodynamic) means the concentration in solution at equilibrium with solid. One may read the Kp as tissue or fluid exposure divided by exposure in the circulation. In general, inhibition refers to the relative decrease from the control value, in per cent. Read a high inhibition as a strong effect.

`CCc1nc(N)nc(N)c1-c1ccc(Cl)cc1` [Compound 1, Pyrimethamine, reference compound] came in with a lipophilicity (logP) in data set [1] of 2.71. Also, in “in vitro”, the CLint scaled was below 8.6 mL/min/kg.
In the case of `Nc1ncc(N2CCN(c3cccc(-c4ccccc4)c3)CC2)c(N)n1` [Compound 2], in “kinetic solubility”, the kinetic solubility is below 4 µM. Besides, the solubility (thermodynamic) in “thermodynamic solubility” was below 4 µM. In data set [1], this molecule displayed a log partition coefficient (logP) of 3.38. Also, in “in vitro”, the CLint scaled at 1 h, 10 µM came to 28.4 mL/min/kg.
For `COc1ncc(-c2cccc(N3CCN(c4cnc(N)nc4N)CC3)c2)cn1` [Compound 3, 5-(4-(3-(2-Methoxypyrimidin-5-yl)phenyl)piperazin-1-yl)pyrimidine-2,4-diamine], in the data set “brain to blood ratio”, the Kp at 0.5 h is 1.7 ± 0.6; the concentration at 0.5 h is 2560 ng/g and 1610 ng/mL. The CLint scaled at 1 h, 10 µM in data set [2] was 56.3 mL/min/kg. Moreover, the inhibition at 10 µM on hERG is 60%. The molecule further registered an intrinsic metabolic clearance (CLint scaled) in “in vitro” below 8.6 mL/min/kg.
In the case of `Nc1ncc(N2CCN(c3cccc(-c4ccccn4)c3)CC2)c(N)n1` [Compound 22, 5-(4-(3-(pyridin-2-yl)phenyl)piperazin-1-yl)pyrimidine-2,4-diamine], in “in vitro”, the intrinsic clearance (CLint scaled) at 1 h, 10 µM worked out at 17.7 mL/min/kg.
Same read-out and setting: the figure for `Nc1ncc(N2CCN(c3cccc(-c4ccncc4)c3)CC2)c(N)n1` [Compound 24, 5-(4-(3-(Pyridin-4-yl)phenyl)piperazin-1-yl)pyrimidine-2,4-diamine] is 18.7 mL/min/kg.
As for `Nc1ncc(N2CCN(c3cccc(-c4ncccn4)c3)CC2)c(N)n1` [Compound 25, 5-(4-(3-(Pyrimidin-2-yl)phenyl)piperazin-1-yl)pyrimidine-2,4-diamine], the intrinsic metabolic clearance (CLint scaled) in “in vitro” is below 8.6 mL/min/kg.
As for `Nc1ncc(N2CCN(c3cccc(-c4cncnc4)c3)CC2)c(N)n1` [Compound 26, 5-(4-(3-(Pyrimidin-5-yl)phenyl)piperazin-1-yl)pyrimidine-2,4-diamine], the CLint scaled at 1 h, 10 µM in data set [2] was found to be 2700 mL/min/kg. In the data set “in vitro”, this molecule showed a CLint scaled below 8.6 mL/min/kg.
`Nc1ncc(N2CCN(c3cccc(-c4cnccn4)c3)CC2)c(N)n1` [Compound 27, 5-(4-(3-(Pyrazin-2-yl)phenyl)piperazin-1-yl)pyrimidine-2,4-diamine] displayed an intrinsic metabolic clearance (CLint scaled) in the data set “in vitro” below 8.6 mL/min/kg.
Same read-out and setting: the same measure for `Nc1ncc(N2CCN(c3cccc(-c4ccnnc4)c3)CC2)c(N)n1` [Compound 28, 5-(4-(3-(Pyridazin-4-yl)phenyl)piperazin-1-yl)pyrimidine-2,4-diamine]: below 8.6 mL/min/kg.
Molecule `Cc1ncc(-c2cccc(N3CCN(c4cnc(N)nc4N)CC3)c2)cn1` [Compound 29, 5-(4-(3-(2-methylpyrimidin-5-yl)phenyl)piperazin-1-yl)pyrimidine-2,4-diamine] yielded an intrinsic clearance (CLint scaled) at 1 h, 10 µM in data set [2] of 431 mL/min/kg. The CLint scaled in “in vitro” is below 8.6 mL/min/kg.
In the data set “in vitro”, `Nc1ncc(N2CCN(c3cccc(-c4cnc(C(F)(F)F)nc4)c3)CC2)c(N)n1` [Compound 30, 5-(4-(3-(2-(Trifluoromethyl)pyrimidin-5-yl)phenyl)piperazin-1-yl)pyrimidine-2,4-diamine] displayed a CLint scaled at 1 h, 10 µM of 10.5 mL/min/kg.
In “in vitro”, `Nc1ncc(N2CCN(c3cccc(-c4cnc(C5CC5)nc4)c3)CC2)c(N)n1` [Compound 31, 5-(4-(3-(2-Cyclopropylpyrimidin-5-yl)phenyl)piperazin-1-yl)pyrimidine-2,4-diamine] returned a CLint scaled at 1 h, 10 µM of 17.4 mL/min/kg.
